Measurements from PubChem BioAssay (NCI).
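Each compound was tested at five concentrations against cells in 96-well plates for 48 hours. TGI denotes the concentration required for complete inhibition of growth.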 Where a SMILES comes first, the peptide text is derived from it. [ ]: non-standard residue; d: D form. The star is where a group is joined. ξ: configuration not given here. ξF = NC(Cc1ccccc1)C(=O)O; Cbz = O=C(OCc1ccccc1)*; Aib = CC(C)(N)C(=O)O

What was measured:
Assay in all cases: inhibition of tumour cell growth, NCI panel, 48 h
[1] = system: LOX IMVI melanoma
[2] = system: NCI-H460 lung
[3] = system: SF-268 CNS
[4] = system: SF-295 CNS
[5] = system: NCI-H23 lung
[6] = system: SNB-75 CNS
[7] = system: OVCAR-8 ovarian
[8] = system: A498 renal
[9] = system: HT29 colon
[10] = system: DU-145 prostate
[11] = system: MCF7 breast

SMILES	TGI [1] [µM]	TGI [2] [µM]	TGI [3] [µM]	TGI [4] [µM]	TGI [5] [µM]	TGI [6] [µM]	TGI [7] [µM]	TGI [8] [µM]	TGI [9] [µM]	TGI [10] [µM]	TGI [11] [µM]
COC(=O)C12Oc3ccc(-c4ccc5c(c4O)C(=O)C4=CCC(C)C(O)C4(C(=O)OC)O5)c(O)c3C(=O)C1=CCC(C)C2O (centres undefined)	2.67	6.33	3.57	6.05	2.83	20.5	7.33	3.54	4.61	–	–
COc1ccc(N[C@H](CS(=O)c2ccc(C)cc2)c2ccc(F)cc2)cc1 (some centres undefined)	> 100	> 100	94.5	> 100	> 100	81.7	> 100	–	> 100	> 100	> 100
CCCCOC(=O)CNC(=O)OCCCCC#CC#CCCCCOC(=O)NCC(=O)OCCCC	> 100	> 100	> 100	> 100	> 100	> 100	> 100	> 100	> 100	–	–
NCCC(N)C(=O)O (centres undefined)	> 100	> 100	> 100	> 100	> 100	–	> 100	> 100	> 100	> 100	> 100
Cc1ccc(C)n2c1nc1ccc3ccccc3c12	–	> 100	> 100	> 100	> 100	86	> 100	–	> 100	> 100	> 100
CCC(C)[C@H](NC(=O)N[C@H](C)c1ccccc1)C(=O)OC (some centres undefined)	> 100	> 100	–	> 100	> 100	> 100	> 100	> 100	> 100	> 100	> 100
CC(C)(C)OC(=O)n1cc(C2CNC(=O)C23CCC(=O)N3Cc2ccccc2)c2ccccc21 (centres undefined)	44	47.6	> 100	35.3	57.1	38.2	–	35.3	37.3	55.4	80.3
O=C(c1ccc(Cl)cc1)c1ccc(OCC(=O)N2CCN(c3ccccc3)CC2)cc1	> 100	> 100	> 100	> 100	> 100	> 100	> 100	78.9	> 100	–	–
S=C1c2ccccc2NC(=NC2CCCC2)C2CSCN12 (centres undefined)	> 100	> 100	> 100	> 100	–	–	> 100	> 100	> 100	> 100	> 100
c1ccc2c(-c3cnc(-c4c[nH]c5ccccc45)cn3)c[nH]c2c1	94.2	> 100	> 100	50.4	> 100	94.4	> 100	> 100	–	> 100	> 100
COC1C(O)CC(OC2C(C)OC(Oc3cc(O)c4c(O)c5c(cc4c3)C[C@@H]([C@H](OC)C(=O)[C@@H](O)[C@@H](C)O)[C@H](OC3CC(OC4CC(OC6CC(C)(O)C(O)C(C)O6)C(O)C(C)O4)C(O)C(C)O3)C5=O)CC2OC(C)=O)OC1C (some centres undefined)	> 100	> 100	> 100	–	> 100	> 100	> 100	> 100	> 100	> 100	> 100
CC(=O)C1CC(C)=CCC12C(=O)Nc1ccccc12 (centres undefined)	> 100	> 100	> 100	> 100	> 100	> 100	> 100	> 100	> 100	–	–
COc1ccc(N(C(=O)Nc2ccc(Cl)c(Cl)c2)c2ccccc2)cc1	> 10	> 10	> 10	> 10	> 10	–	> 10	> 10	> 10	> 10	> 10
Cc1ccc([N+](=O)[O-])cc1S(=O)(=O)Nc1ccc(C2=NN(c3ccc([N+](=O)[O-])cc3[N+](=O)[O-])C(c3ccccc3)C2)cc1 (centres undefined)	32.2	–	28	35.9	31.5	52.4	40.2	–	37.6	38.9	26.3
CCC(CCCN)Nc1cc(OC)cc2cccnc12 (centres undefined)	> 100	> 100	> 100	> 100	–	> 100	> 100	> 100	> 100	> 100	> 100
COc1cccc2cc(C)c(C(=O)c3ccccc3)nc12	> 100	–	> 100	> 100	> 100	> 100	> 100	–	–	–	–
Brc1ccc(N=NN2CCCCC2)cc1	> 100	> 100	> 100	> 100	> 100	> 100	> 100	> 100	–	> 100	> 100
Cc1cn(C2CC(n3cc(Cn4cc(F)c(=O)[nH]c4=O)nn3)C(CO)O2)c(=O)[nH]c1=O (centres undefined)	> 100	–	> 100	> 100	> 100	> 100	> 100	> 100	–	> 100	> 100
CCOC(C[Se]CC(OCC)OCC)OCC	59.4	> 100	–	> 100	> 100	38.8	> 100	> 100	> 100	85.7	> 100
CC1=NOC2(C1)/C(=N/O)CCC/C2=N\O (centres undefined)	> 100	> 100	> 100	> 100	> 100	> 100	> 100	–	> 100	–	> 100
COc1cc(OC)c2c(O)cc(CC(C)O)cc2c1 (centres undefined)	> 100	> 100	> 100	> 100	> 100	> 100	> 100	> 100	> 100	–	–

SMILES	TGI [1] [µM]	TGI [2] [µM]	TGI [3] [µM]	TGI [4] [µM]	TGI [5] [µM]	TGI [6] [µM]	TGI [7] [µM]	TGI [8] [µM]	TGI [9] [µM]	TGI [10] [µM]	TGI [11] [µM]
CC(=O)OC[C@H]1O[C@@H](O[C@H]2[C@H](OC(C)=O)C=CO[C@@H]2COC(C)=O)C(OC(C)=O)[C@H]2OC(C)(C)O[C@H]21 (some centres undefined)	> 100	> 100	> 100	> 100	> 100	87.3	> 100	–	> 100	–	> 100
Cc1ccc(C(=O)OC[C@H]2CC[C@@H](n3cc(N(C)C4CCCCC4)c(=O)[nH]c3=O)O2)cc1	38.2	> 100	86.5	43.1	> 100	–	> 100	46.8	37.8	> 100	47.2
COc1cc(-c2nc3cc(F)ccc3s2)ccc1O	> 100	> 100	> 100	> 100	> 100	–	> 100	83.8	> 100	> 100	> 100
CC(=O)c1ccc(N=Nc2ccc3nonc3c2N)cc1	> 100	> 100	> 100	> 100	> 100	> 100	> 100	–	> 100	> 100	> 100
CCCCCc1cc(OC(=O)c2c(O)cc(OC)cc2CCCCC)cc(O)c1C(=O)O	33.1	31.3	30	35.4	27.1	32.5	36.3	35.6	29.9	–	–
CN1CC2=C(OC(N)=C(C#N)C2c2cccs2)/C(=C/c2cccs2)C1 (centres undefined)	> 63.3	58.9	> 31.1	> 100	> 100	–	> 67.7	> 100	> 78.3	81.7	8.33
COC(=O)CCCc1ccc2c(c1)CC1(C2)Cc2cc3c(cc2C1)CCCC3	72.1	–	–	> 100	> 100	–	> 100	> 100	> 100	–	> 100
CSc1c(C(=O)Nc2ccccc2)c(N)nn1-c1ccccc1	> 100	> 100	> 100	–	> 100	> 100	> 100	> 100	> 100	> 100	> 100
CC1OC(OCC2OC(Oc3c(-c4ccc(O)cc4)oc4cc(O)cc(O)c4c3=O)C(OC3OCC(O)(CO)C3O)C(O)C2O)C(O)C(O)C1O (centres undefined)	> 100	> 100	> 100	> 100	> 100	> 100	> 100	> 100	> 100	–	–
COc1ccc(CCn2cnc3ccccc32)cc1	–	> 100	> 100	> 100	> 100	> 100	> 100	> 100	> 100	> 100	> 100
CC(=O)Oc1ccc(/C=C/C(=O)O[C@@H](C)[C@H](C)OC(=O)/C=C/c2ccc(OC(C)=O)c(OC(C)=O)c2)cc1OC(C)=O	29	> 100	> 100	39.3	25.8	> 100	53.6	93.9	–	> 100	> 100
CC(C)(NC(=O)OCc1ccccc1)C(=O)NC(Cc1ccccc1)C(=O)O (centres undefined) (Cbz-[Aib]-[ξF]-OH)	> 100	> 100	–	> 100	> 100	> 100	> 100	> 100	> 100	> 100	> 100
Cc1cnc2c(C)ccc([N+](=O)[O-])c2c1NCCCN(C)C	> 100	> 100	> 100	> 100	> 100	–	> 100	–	> 100	–	–
CCCCOC(=O)C(=O)C(CCC(=O)c1ccc(C)cc1)C(=O)C=C(C)C (centres undefined)	> 100	> 100	> 100	> 100	> 100	> 100	> 100	> 100	> 100	–	> 100
CC(=O)C(C(C)=O)=C1CCCC(O)O1 (centres undefined)	–	> 100	> 100	> 100	> 100	> 100	> 100	> 100	> 100	> 100	> 100
CC(C)CCCC(C)[C@H]1CCC2[C@@H]3CCC4Cc5nc6c(nc5C[C@]4(C)C3CC[C@@]21C)CC1CC[C@@H]2C(C[C@@H](O)[C@@]3(C)C2C[C@@H]2OC4(CCC(C)CO4)C(C)[C@@H]23)[C@@]1(C)C6 (some centres undefined)	–	> 100	> 100	> 100	> 100	> 100	> 100	–	> 100	> 100	> 100
CCc1cccc(C(C)C)c1NC(=O)C(=O)C(Cc1nc2ccccc2[nH]c1=O)C(=O)OC (centres undefined)	> 100	> 100	> 100	> 100	> 100	> 100	> 100	> 100	> 100	–	–
Cc1ccc(C(=O)N(C2CCCCC2)C2CCCCC2)cc1N=NN(C)C	30.2	35.5	27.7	23.5	27.9	–	27.5	–	16.6	–	29.7
COC1=CC(=O)c2ccccc2C1(CCC=C(C)C)C1=NC(C)(C)CO1 (centres undefined)	–	> 100	> 100	> 100	> 100	> 100	> 100	–	> 100	–	–
O=c1c2ccccc2[nH]c(=S)n1-c1ccc(Br)cc1	> 100	> 100	> 100	> 100	> 100	> 100	> 100	> 100	> 100	–	–
CCNC(=O)Nc1cccc(C)n1	–	> 100	> 100	> 100	> 100	> 100	> 100	> 100	> 100	> 100	> 100
